These are literature values, as cited in patent publication EP2697366B1, “B[…] THE PRESERVATION OF CELLULAR FUN[…] CLINICAL CELL THERAPY” (Johann Wolfgang Goethe-Universität, Frankfurt am Main, priority 2011, dated 2018).

The conditions of series [1]: in vivo.
For series [2] the following is noted: two large clinical studies.

For the molecule `CC[C@H](C)[C@H](NC(=O)[C@H](CCC(=O)O)NC(=O)[C@H](CCC(=O)O)NC(=O)[C@H](Cc1ccccc1)NC(=O)[C@H](CC(=O)O)NC(=O)CNC(=O)[C@H](CC(N)=O)NC(=O)CNC(=O)CNC(=O)CNC(=O)CNC(=O)[C@@H]1CCCN1C(=O)[C@H](CCCNC(=N)N)NC(=O)[C@@H]1CCCN1C(=O)[C@H](N)Cc1ccccc1)C(=O)N1CCC[C@H]1C(=O)N[C@@H](CCC(=O)O)C(=O)N[C@@H](CCC(=O)O)C(=O)N[C@@H](Cc1ccc(O)cc1)C(=O)N[C@@H](CC(C)C)C(=O)O` [Bivalirudin], the Eliminationshalbwertszeit entry in series [1] is “ca. 25 Minuten”. Also, the “schwere Blutungskomplikationen” value in series [2] is listed as “hochsignifikanten Reduktion schwerer Blutungskomplikationen”.
